Laboratory results: patent US20200339548A1, “PYRIMIDINE DERIVATIVES AND THEIR USE FOR THE TREATMENT OF CANCER” (Adorx Therapeutics Limited, priority 2017, published 2020)

Key:
Adenosine A2a receptor = biological target: T1, Adenosine A2a receptor (Homo sapiens, UniProt P29274); test: Adenosine receptor TR-FRET binding assay, A2a; settings: displacement of 100 nM CA200645, CHO cell membranes
T1 construct: expressed in transfected cells; host or cells: CHO cell membranes
Method: (§1) All FRET binding experiments were conducted at room temperature in white 384-well plates, in assay binding buffer containing 1× LabMed (Cisbio, France), 100 μg/mL saponin, 1% DMSO and 0.02% pluronic acid. Binding of the fluorescently labelled Adenosine receptor antagonist XAC (CA200645, FRET acceptor) to terbium-labelled A1, A2a, A2b and A3 adenosine receptors (FRET donors) was detected by time-resolved FRET due to the close proximity of the donor and acceptor in a binding event. To investigate the ability of unlabelled test compounds to bind to Adenosine A1, A2a, A2b and A3 receptors, dose response curves were constructed that determined the ability of a range of concentrations to inhibit the binding of 30 nM CA200645 to the A2b receptor and 100 nM CA200645 to the A1, A2a, and A3 receptor.
(§2) Serial dilution (1:3 dilutions) of test compounds in neat DMSO and transfer of a 400 nL sample of test compound into the assay plate was carried out using the Mosquito (TTP Labtech, UK). The compound samples were incubated for 2 hours at room temperature with a fixed concentration of CA200645 defined for each receptor (see above) and CHO cell membranes containing the human Adenosine A1 (0.5 μg/well), A2a (0.3 μg/well), A2b (1 μg/well) or A3 (1 μg/well) receptor in 40 μL of assay buffer. Total and non-specific binding of CA200645 was determined in the absence and presence of 10 μM XAC, respectively.
(§3) Following 2 hours incubation, the level of CA200645 binding was detected on a Pherastar FSX (BMG Labtech, Germany) using standard TR-FRET settings. The terbium donor was excited with three laser flashes at a wavelength of 337 nm, and donor and acceptor emission was detected at 620 nm and 665 nm wavelengths, respectively. FRET ratios were obtained by multiplying the acceptor/donor ratio value by 10,000. Specific binding was determined by subtracting the non-specific binding FRET ratio from the total binding FRET ratio. Compound IC50 curves were analysed using GraphPad Prism 7.0 (GraphPad, USA) and Ki affinity values were determined from the obtained […] values using the method of Cheng and Prusoff.

Adenosine A1 receptor = biological target: T2, Adenosine A1 receptor (Homo sapiens, UniProt P30542); test: Adenosine receptor TR-FRET binding assay, A1; settings: Table 9, further testing; displacement of 100 nM CA200645, CHO cell membranes
T2 construct: expressed in transfected cells; host or cells: CHO cell membranes
T2 sequence (P30542 1-326): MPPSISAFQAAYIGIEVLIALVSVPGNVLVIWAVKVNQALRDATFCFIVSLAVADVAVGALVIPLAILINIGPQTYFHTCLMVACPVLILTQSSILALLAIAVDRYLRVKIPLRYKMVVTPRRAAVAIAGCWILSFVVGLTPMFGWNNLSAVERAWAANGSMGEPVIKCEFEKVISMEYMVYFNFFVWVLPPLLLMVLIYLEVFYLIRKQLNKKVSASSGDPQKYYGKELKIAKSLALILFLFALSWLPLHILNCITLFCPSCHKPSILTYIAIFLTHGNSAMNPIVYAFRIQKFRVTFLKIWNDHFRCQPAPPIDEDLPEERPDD
Method: as §1, §2, §3

Adenosine A3 receptor = biological target: T3, Adenosine A3 receptor (Homo sapiens, UniProt P0DMS8); test: Adenosine receptor TR-FRET binding assay, A3; settings: Table 9, further testing; displacement of 100 nM CA200645, CHO cell membranes; read-out: A3 Ki
T3 construct: expressed in transfected cells; host or cells: CHO cell membranes
T3 sequence (P0DMS8 1-318): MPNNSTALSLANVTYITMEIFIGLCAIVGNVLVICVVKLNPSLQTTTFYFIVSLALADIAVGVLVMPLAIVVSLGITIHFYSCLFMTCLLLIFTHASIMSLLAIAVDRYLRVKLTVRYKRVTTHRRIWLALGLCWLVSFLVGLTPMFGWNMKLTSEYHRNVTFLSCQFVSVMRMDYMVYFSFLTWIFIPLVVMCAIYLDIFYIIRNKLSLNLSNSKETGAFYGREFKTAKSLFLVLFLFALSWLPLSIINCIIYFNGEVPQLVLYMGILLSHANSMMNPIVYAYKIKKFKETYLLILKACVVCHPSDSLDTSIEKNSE
Method: as §1, §2, §3

Adenosine A2b receptor = biological target: T4, Adenosine A2b receptor (Homo sapiens, UniProt P29275); test: Adenosine receptor TR-FRET binding assay, A2b; settings: Table 9, further testing; displacement of 30 nM CA200645, CHO cell membranes
T4 construct: expressed in transfected cells; host or cells: CHO cell membranes
T4 sequence (P29275 1-332): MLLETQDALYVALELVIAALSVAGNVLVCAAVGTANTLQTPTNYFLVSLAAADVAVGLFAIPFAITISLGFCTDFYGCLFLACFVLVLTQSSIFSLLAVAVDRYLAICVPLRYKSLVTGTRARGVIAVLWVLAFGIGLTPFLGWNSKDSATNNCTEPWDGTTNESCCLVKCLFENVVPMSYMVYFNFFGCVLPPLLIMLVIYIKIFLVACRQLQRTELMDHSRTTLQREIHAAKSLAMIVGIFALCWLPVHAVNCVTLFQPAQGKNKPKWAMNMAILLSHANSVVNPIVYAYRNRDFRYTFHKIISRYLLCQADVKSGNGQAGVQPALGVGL
Method: as §1, §2, §3

T1 sequence (P29274 whole entry): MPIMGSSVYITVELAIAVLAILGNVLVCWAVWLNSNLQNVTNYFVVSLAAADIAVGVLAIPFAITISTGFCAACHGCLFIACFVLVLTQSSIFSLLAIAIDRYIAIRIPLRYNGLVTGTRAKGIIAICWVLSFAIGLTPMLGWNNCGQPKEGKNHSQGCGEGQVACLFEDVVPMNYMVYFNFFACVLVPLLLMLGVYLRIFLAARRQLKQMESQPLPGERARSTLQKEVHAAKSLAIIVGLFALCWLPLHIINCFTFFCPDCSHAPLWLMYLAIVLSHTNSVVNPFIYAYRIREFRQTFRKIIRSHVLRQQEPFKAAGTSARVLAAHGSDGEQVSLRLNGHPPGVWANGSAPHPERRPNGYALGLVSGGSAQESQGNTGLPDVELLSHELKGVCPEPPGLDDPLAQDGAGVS

Row | SMILES | Ki (Adenosine A2a receptor; Table 9, further testing) [nM] | Ki (Adenosine A1 receptor) [nM] | Ki (Adenosine A3 receptor) [nM] | Ki (Adenosine A2b receptor) [nM] | Ki (Adenosine A2a receptor; Table 8, Cheng and Prusoff) [nM]
1 | Nc1nc(-c2ccco2)ncc1C(=O)N[C@H](CO)c1ccccc1 [Example 5.61, 4-Amino-2-(2-furyl)-N-[(1S)-2-hydroxy-1-phenyl-ethyl]pyrimidine-5-carboxamide] | 54 | 4080 | 1470 |  | 
2 | Cc1cccnc1C(C)NC(=O)c1cnc(-c2ccco2)nc1N (centres unmarked) [Example 5.57, 4-Amino-2-(2-furyl)-N-[1-(3-methyl-2-pyridyl)ethyl]pyrimidine-5-carboxamide] | 40 | 4480 | 1230 |  | 
3 | COc1cccc(OC)c1CNC(=O)c1cnc(-c2ccco2)nc1N [Example 5.31, 4-Amino-N-[(2,6-dimethoxyphenyl)methyl]-2-(2-furyl)pyrimidine-5-carboxamide] | 1.2 | 1530 |  | 4220 | 
4 | Cn1ccnc1CNC(=O)c1cnc(-c2ccco2)nc1N [Example 5.37, 4-Amino-2-(2-furyl)-N-[(1-methylimidazol-2-yl)methyl]pyrimidine-5-carboxamide] | 16 |  |  | 1600 | 
5 | Nc1nc(-c2cccc(F)c2)ncc1C(=O)NCCc1ccc(O)cc1 [Example 5.7, 4-Amino-2-(3-fluorophenyl)-N-[2-(4-hydroxyphenyl)ethyl]pyrimidine-5-carboxamide] | 505 |  |  | 3260 | 505
6 | Nc1nc(-c2cccc(F)c2)ncc1C(=O)Nc1ccccc1 [Example 4.2, 4-Amino-2-(3-fluorophenyl)-N-phenyl-pyrimidine-5-carboxamide] | 112 |  |  | 8060 | 112
7 | Nc1nc(-c2cccc(F)c2)ncc1C(=O)NCc1ccccn1 [Example 5.9, 4-Amino-2-(3-fluorophenyl)-N-(2-pyridylmethyl)pyrimidine-5-carboxamide] | 76 |  |  | 195 | 76
8 | Cc1ccccc1CNC(=O)c1cnc(-c2cccc(F)c2)nc1N [Example 5.10, 4-Amino-2-(3-fluorophenyl)-N-(o-tolylmethyl)pyrimidine-5-carboxamide] | 150 |  |  | 10000 | 150
9 | Cc1cccnc1CNC(=O)c1cnc(-c2ccc(F)cc2)nc1N [Example 14, 4-Amino-2-(4-fluorophenyl)-N-[(3-methyl-2-pyridyl)methyl]pyrimidine-5-carboxamide] | 744 | 740 | 202 |  | 744
10 | Cc1cccnc1CNC(=O)c1c(N)nc(-c2cccc(C#N)c2)nc1OCCF [Example 24.8, 4-Amino-2-(3-cyanophenyl)-6-(2-fluoroethoxy)-N-[(3-methyl-2-pyridyl)methyl]pyrimidine-5-carboxamide] | 0.1 | 3.8 | 28.5 |  | 
11 | Nc1nc(-c2cccc(F)c2)ncc1C(=O)NCCc1ccccc1 [Example 4.1, 4-Amino-2-(3-fluorophenyl)-N-(2-phenylethyl)pyrimidine-5-carboxamide] | 142 |  |  | 1730 | 141
12 | Nc1nc(-c2ccco2)ncc1C(=O)NCc1ncccn1 [Example 5.58, 4-Amino-2-(2-furyl)-N-(pyrimidin-2-ylmethyl)pyrimidine-5-carboxamide] | 105 |  |  | 2120 | 
13 | Cc1cccnc1CNC(=O)c1c(N)nc(-c2ccco2)nc1-n1cccn1 [Example 19, 4-Amino-2-(2-furyl)-N-[(3-methyl-2-pyridyl)methyl]-6-pyrazol-1-yl-pyrimidine-5-carboxamide] | 105 | 871 | 675 |  | 105
14 | Nc1nc(-c2ccco2)ncc1C(=O)NCc1ccc(C(F)(F)F)cc1 [Example 5.28, 4-amino-2-(2-furyl)-N-[[4-(trifluoromethyl)phenyl]methyl]pyrimidine-5-carboxamide] | 298 | 5660 | 5780 |  | 298
15 | Nc1nc(-c2cccc(F)c2)ncc1C(=O)NCc1ccccc1 [Example 4, 4-Amino-N-benzyl-2-(3-fluorophenyl)pyrimidine-5-carboxamide] | 75 |  |  | 1210 | 74
16 | Nc1nc(-c2ccco2)ncc1C(=O)NCc1ccc2[nH]ccc2c1 [Example 5.41, 4-Amino-2-(2-furyl)-N-(1H-indol-5-ylmethyl) pyrimidine-5-carboxamide] | 52 | 4740 |  | 1090 | 
17 | Nc1nc(-c2cccc(F)c2)ncc1C(=O)NCc1c(F)cccc1F [Example 5.4, 4-Amino-N-[(2,6-difluorophenyl)methyl]-2-(3-fluorophenyl)pyrimidine-5-carboxamide] | 50 |  |  | 138 | 50
18 | Nc1nc(-c2ccco2)ncc1C(=O)NCc1nccc(C(F)(F)F)n1 [Example 5.59, 4-Amino-2-(2-furyl)-N-[[4-(trifluoromethyl)pyrimidin-2-yl]methyl]pyrimidine-5-carboxamide] | 236 |  | 4610 |  | 
19 | Nc1nc(-c2ccco2)ncc1C(=O)NCc1cc(F)cc(C(F)(F)F)c1 [Example 5.44, 4-Amino-N-[[3-fluoro-5-(trifluoromethyl)phenyl]methyl]-2-(2-furyl)pyrimidine-5-carboxamide] | 78 | 364 | 1090 |  | 
20 | Nc1nc(-c2ccco2)ncc1C(=O)NCc1cc(F)cc(F)c1 [Example 5.17, 4-Amino-N-[(3,5-difluorophenyl)methyl]-2-(2-furyl)pyrimidine-5-carboxamide] | 24 | 1890 | 3050 |  | 24
21 | Cc1cccnc1CNC(=O)c1c(N)nc(-c2ccco2)nc1OCCN1CCNCC1 [Example 23.2, 4-Amino-2-(2-furyl)-N-[(3-methyl-2-pyridyl)methyl]-6-(2-piperazin-1-ylethoxy)pyrimidine-5-carboxamide] | 287 | 7550 | 6700 |  | 
22 | Nc1nc(-c2ccco2)ncc1C(=O)NCc1ccc(F)cc1 [Example 5.14, 4-Amino-N-[(4-fluorophenyl)methyl]-2-(2-furyl)pyrimidine-5-carboxamide] | 33 |  | 1820 | 6630 | 33
23 | Nc1nc(-c2ccco2)ncc1C(=O)NCc1cc2ccccc2cn1 [Example 5.36, 4-Amino-2-(2-furyl)-N-(3-isoquinolylmethyl) pyrimidine-5-carboxamide] | 14 | 2660 |  | 970 | 
24 | CC(C)n1ncnc1CNC(=O)c1c(N)nc(-c2cccc(C#N)c2)nc1OCCF [Example 24.4, 4-Amino-2-(3-cyanophenyl)-6-(2-fluoroethoxy)-N-[(2-isopropyl-1,2,4-triazol-3-yl)methyl]pyrimidine-5-carboxamide] | 1.08 | 22 | 611 |  | 
